Results: patent US20230406849A1, “KRAS INHIBITORS FOR TREATMENT OF CANCERS” (TYLIGAND BIOSCIENCE (SHANGHAI) LIMITED, priority 2020, published 2023)
Read-outs that look alike come from different tables or passages of the source.

Experiments:
Type in all cases: cell-based
[1] = system: A549 (KRasG12S); assay: KRas mutant cell proliferation, CellTiter-Glo (CTG); settings: Homo sapiens, A549, KRas G12S, lung cancer, 72 h; for inhibition at up to 10 µM: top concentration 10 μM, read-out: Maximum inhibition %
Text: (§1) In this assay, the CellTiter-Glo (CTG) kit of Promega was used to evaluate the anti-proliferation activities of the compounds of the present disclosure on 12 KRas mutant tumor cell lines.
(§2) [Test materials]: RPMI1640 medium (Hyclone, Cat #SH30809.01); fetal bovine serum (FBS) (Gibco, Cat #10099-141); phosphate buffer PBS (Solarbio, Cat #P1020-500); DMSO (Sigma, Cat #D8418-1L); detection kit CTG (Promega, Cat #G7573); 96-well cell culture plate (Thermo, Cat #3100 Series); Vibrator (QILINBEIER, Cat #QB-9001); Incubator (Thermo Scientific, Cat #Model 3100 series); microscope (OLYMPUS, Cat #CKX41SF); multi-function microplate reader (BMG LABTECH, Cat #CLARIOstar® Plus); biological safety cabinet (Thermo, Cat #Model 1300 Series A2). All cell lines used in the following assay were purchased from KYinno Biotechnology Co., Ltd.
(§3) Each of the above cell lines was cultured in the indicated complete medium at 37° C., 5% CO2, and the cells in the logarithmic growth phase were harvested and counted using a platelet counter. The cell viability was detected by the trypan blue exclusion method to ensure that the cell viability was above 90%. Cell density was adjusted using complete medium, and then inoculated into 96-well cell culture plates, at 90 μL and a total of 3000 cells per well. The cells in the 96-well plate were cultured at 37° C. and 5% CO2.
(§4) The test compound solution in culture medium was prepared, the top concentration was 10 μM, serially diluted at a dilution factor of 3.16 to afford 9 concentrations. 10 μL of each diluted compound solution was transferred to the corresponding experimental well of the 96-well cell plate and each concentration was set three replicate wells. The cells in the 96-well plate that had been dosed were incubated at 37° C. and 5% CO2 for 72 hours, and then CTG analysis was performed.
(§5) The CTG reagent was melted, and the cell plate was moved to room temperature to equilibrate for 30 minutes. 100 μL of CTG solution was added to each well, and shaken on an orbital shaker for 5 minutes to fully lyse the cells. The plate was kept at room temperature for 20 minutes to stabilize the luminescence signal, and the luminescence value of each well was scanned and the data was collected. GraphPad Prism 7.0 software was used to analyze the data, and the nonlinear Sigmoidal regression was used to fit the data to obtain a dose-response curve. The relative and absolute IC50 values and the maximum inhibition rate were calculated according to conventional methods well known to those skilled in the art.
(§6) Inhibition rate %=[1−(LumDrug to be tested−LumCulture medium control)/(LUMCell control−LumCulture medium control)]×100%

[2] = system: H1373 (KRas-G12C); assay: as above; settings: Homo sapiens, NCI-H1373, lung cancer, 72 h; for inhibition at up to 10 µM: top concentration 10 μM, read-out: Maximum inhibition %
Text: as §1, §2, §3, §4, §5, §6

[3] = system: H23 (KRas-G12C); assay: as above; settings: lung cancer, 72 h; for inhibition at up to 10 µM: top concentration 10 μM, read-out: Maximum inhibition %
Text: as §1, §2, §3, §4, §5, §6

[4] = system: HCT116 (KRas-G13D); assay: as above; settings: Homo sapiens, HCT-116, colorectal cancer, 72 h; for inhibition at up to 10 µM: top concentration 10 μM, read-out: Maximum inhibition %
Text: as §1, §2, §3, §4, §5, §6

[5] = system: Kyse-410 (KRas-G12C); assay: as above; settings: Homo sapiens, esophageal cancer, 72 h; for inhibition at up to 10 µM: top concentration 10 μM, read-out: Maximum inhibition %
Text: as §1, §2, §3, §4, §5, §6

[6] = system: MIA-PaCa-2 (KRas-G12C); assay: as above; settings: Homo sapiens, pancreatic cancer, 72 h; for inhibition at up to 10 µM: top concentration 10 μM, read-out: Maximum inhibition %
Text: as §1, §2, §3, §4, §5, §6

[7] = system: SW837 (KRas-G12C); assay: as above; settings: Homo sapiens, rectal cancer, 72 h; for inhibition at up to 10 µM: top concentration 10 μM, read-out: Maximum inhibition %
Text: as §1, §2, §3, §4, §5, §6

[8] = system: T84 (KRas-G13D); assay: as above; settings: colon cancer, 72 h; for inhibition at up to 10 µM: top concentration 10 μM, read-out: Maximum inhibition %
Text: as §1, §2, §3, §4, §5, §6

[9] = system: BaF3-KRas-G12C-H95D; assay: Proliferation of KRas G12C inhibitor-resistant cell model, CTG; settings: Adagrasib acquired-resistance model
Method: as §3
(§7) 10 μL of each diluted compound solution was transferred to the corresponding experimental well of the 96-well cell plate and each concentration was set three replicate wells. The cells in the 96-well plate that had been dosed were incubated at 37° C. and 5% CO2 for 72 hours, and then CTG analysis was performed.
as §5, §6
(§8) Acquired resistance is one of the key factors that affect the treatment efficacy of KRas G12C inhibitors.
(§9) All cell lines used in this assay were provided by KYinno Biotechnology Co., Ltd.

[10] = system: BaF3-KRas-G12C-H95Q; assay: as above; settings: Adagrasib acquired-resistance model
Method: as §3, §7, §5, §6, §8, §9

[11] = system: BaF3-KRas-G12C-R68S; assay: as above; settings: Adagrasib acquired-resistance model
Method: as §3, §7, §5, §6, §8, §9

[12] = system: BaF3-KRas-G12C-Y96C; assay: as above; settings: Adagrasib acquired-resistance model
Method: as §3, §7, §5, §6, §8, §9

[13] = system: BaF3-KRas-G12C-Y96D; assay: as above; settings: Adagrasib acquired-resistance model
Method: as §3, §7, §5, §6, §8, §9

Compound | inhibition at up to 10 µM [1] [%] | IC50 ([1]; read-out: Absolute IC50) [µM] | IC50 ([1]; read-out: Relative IC50) [µM] | IC50 ([2]; read-out: Absolute IC50) [µM] | IC50 ([2]; read-out: Relative IC50) [µM] | inhibition at up to 10 µM [2] [%] | IC50 ([3]; read-out: Absolute IC50) [µM] | IC50 ([3]; read-out: Relative IC50) [µM] | inhibition at up to 10 µM [3] [%] | IC50 ([4]; read-out: Absolute IC50) [µM] | IC50 ([4]; read-out: Relative IC50) [µM] | inhibition at up to 10 µM [4] [%] | IC50 ([5]; read-out: Absolute IC50) [µM] | IC50 ([5]; read-out: Relative IC50) [µM] | inhibition at up to 10 µM [5] [%] | IC50 ([6]; read-out: Absolute IC50) [µM] | IC50 ([6]; read-out: Relative IC50) [µM] | inhibition at up to 10 µM [6] [%] | IC50 ([7]; read-out: Absolute IC50) [µM] | IC50 ([7]; read-out: Relative IC50) [µM] | other results
C=CC(=O)N1CCN(c2c(C#N)cnc3c(F)c(-c4ccc(F)c5sc(N)nc45)c(Cl)cc23)CC1 [Example 9, 4-(4-Acryloylpiperazin-1-yl)-7-(2-amino-7-fluorobenzo[d]thiazol-4-yl)-6-chloro-8-fluoroquinoline-3-carbonitrile] | 44.1 | > 10 | > 10 | 1.51 | 1.64 | 80.3 | 0.273 | 0.205 | 94.4 | 7.06 | 5.89 | 62 | 1.57 | 2.04 | 77.5 | 0.081 | 0.036 | 85.9 | 0.431 | 0.017 | inhibition at up to 10 µM [7]: 60%; IC50 ([8]; read-out: Absolute IC50): > 10 µM; IC50 ([8]; read-out: Relative IC50): > 10 µM; inhibition at up to 10 µM [8]: 14.7%; IC50 [9]: 0.1 µM; IC50 [10]: 0.091 µM; IC50 [11]: 0.56 µM; IC50 [12]: 0.31 µM; IC50 [13]: 1.29 µM
C=CC(=O)N1CCN(c2ncnc3c(F)c(-c4ccc(F)c5sc(N)nc45)c(Cl)cc23)CC1 [Ref. Comp. A, reference compound] | 19.7 | > 10 | > 10 | 3.24 | 1.92 | 65.2 | 0.521 | 0.32 | 85.9 | > 10 | > 10 | 29.3 | 7.24 | 5.63 | 58.3 | 0.092 | 0.041 | 74.5 | > 10 | 0.018 | inhibition at up to 10 µM [7]: 48.6%; IC50 ([8]; read-out: Absolute IC50): > 10 µM; IC50 ([8]; read-out: Relative IC50): > 10 µM; inhibition at up to 10 µM [8]: 4.59%; IC50 [9]: 0.15 µM; IC50 [10]: 0.12 µM; IC50 [11]: 1.79 µM; IC50 [12]: 0.55 µM; IC50 [13]: 3.24 µM
